Active and inactive are the calls of the source. The calls are words filed in the database; no cut-off is given here.
Columns and labels:
[1] = biological target: T1, Amyloid-beta precursor protein (Homo sapiens, UniProt P05067); experiment: Inhibition of human amyloid beta (1 to 42) aggregation at 1 to 100 uM after 24 hrs by thioflavin-T fluorescence assay
[2] = biological target: T1, Amyloid-beta precursor protein; experiment: Inhibition of human amyloid beta (1 to 42) aggregation after 24 hrs by thioflavin-T fluorescence assay
[3] = biological target: T1, Amyloid-beta precursor protein; experiment: Inhibition of human amyloid beta (1 to 42) aggregates by measuring monomer concentration at 20 uM after 48 hrs by thermodynamic stability assay
[4] = biological target: T1, Amyloid-beta precursor protein; experiment: Inhibition of human amyloid beta (1 to 42) beta-sheet formation at 50 uM after 12 to 24 hrs by CD-spectra analysis
[5] = biological target: T1, Amyloid-beta precursor protein; experiment: Inhibition of human amyloid beta (1 to 42) fibril formation at 50 uM after 24 hrs by transmission electron microscopic analysis
[6] = biological target: T1, Amyloid-beta precursor protein; experiment: Inhibition of amyloid beta (1 to 42)-mediated neurotoxicity in human SH-SY5Y cells assessed as increase in cell viability at 20 uM after 48 hrs by MTT assay; format: cell-based
[7] = biological target: T1, Amyloid-beta precursor protein; experiment: Inhibition of amyloid beta (1 to 42)-mediated neurotoxicity in human SH-SY5Y cells assessed as increase in cell viability after 48 hrs by MTT assay; format: cell-based
[8] = biological target: T1, Amyloid-beta precursor protein; experiment: Inhibition of human amyloid beta (1 to 42) oligomerization assessed as decrease in trimer formation at 50 uM after 2 hrs by Western blot analysis
[9] = biological target: T1, Amyloid-beta precursor protein; experiment: Inhibition of human amyloid beta (1 to 42) oligomerization assessed as decrease in trimer formation at 25 uM after 2 hrs by Western blot analysis
[10] = biological target: T1, Amyloid-beta precursor protein; experiment: Inhibition of human amyloid beta (1 to 42) oligomerization at 90 uM after 24 to 144 hrs by Dot blot analysis

T1 sequence (P05067 whole entry): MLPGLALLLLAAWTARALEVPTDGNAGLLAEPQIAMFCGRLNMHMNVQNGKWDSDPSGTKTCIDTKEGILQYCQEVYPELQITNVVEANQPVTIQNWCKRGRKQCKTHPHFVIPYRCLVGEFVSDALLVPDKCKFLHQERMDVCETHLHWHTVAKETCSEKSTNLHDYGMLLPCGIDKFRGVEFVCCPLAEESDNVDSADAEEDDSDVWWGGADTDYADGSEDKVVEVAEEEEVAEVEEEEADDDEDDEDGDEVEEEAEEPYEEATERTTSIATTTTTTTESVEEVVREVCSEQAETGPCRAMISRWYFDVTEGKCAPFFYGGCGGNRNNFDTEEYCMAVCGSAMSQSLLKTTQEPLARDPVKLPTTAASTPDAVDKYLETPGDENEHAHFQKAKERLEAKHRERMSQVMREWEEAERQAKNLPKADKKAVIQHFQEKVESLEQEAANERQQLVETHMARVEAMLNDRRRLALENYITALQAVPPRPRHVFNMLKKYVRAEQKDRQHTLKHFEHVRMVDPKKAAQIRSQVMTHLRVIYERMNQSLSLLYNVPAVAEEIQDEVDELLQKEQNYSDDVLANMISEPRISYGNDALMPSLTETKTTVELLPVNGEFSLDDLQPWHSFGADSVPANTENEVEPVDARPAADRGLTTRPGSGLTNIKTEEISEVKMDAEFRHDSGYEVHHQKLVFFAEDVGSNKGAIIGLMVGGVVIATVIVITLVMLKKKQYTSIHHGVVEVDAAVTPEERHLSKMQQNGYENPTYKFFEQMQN

Row | inhibition [1] | IC50 [2] [µM] | Structure (SMILES) | other results
1 |  | 92.9 | O=C(/C=C/c1ccc(O)c(O)c1)O[C@@H]1C[C@](O)(C(=O)O)C[C@@H](O)[C@H]1O [CHLOROGENIC ACID] | inhibition [2]: Dose-dependent effect
2 | Active | 16.4 | O=C(/C=C/c1ccc(O)c(O)c1)O[C@@H]1C[C@](O)(C(=O)O)C[C@@H](OC(=O)/C=C/c2ccc(O)c(O)c2)[C@H]1O | 
3 | inactive | > 100 | O=C(O)/C=C/c1ccccc1 [CINNAMIC ACID] | 
4 | Active | 4.7 | O=C(/C=C/c1ccc(O)c(O)c1)O[C@@H]1[C@H](O)C[C@@](O)(C(=O)O)C[C@H]1OC(=O)/C=C/c1ccc(O)c(O)c1 | 
5 | inactive | > 100 | COC(=O)[C@]1(O)C[C@@H](O)[C@@H](O)[C@H](OC(=O)/C=C/c2ccc(O)c(O)c2)C1 [CHLOROGENIC ACID METHYL ESTER] | 
6 |  | 32.8 | O=C(O)/C=C/c1ccc(O)c(O)c1 [CAFFEIC ACID] | inhibition [2]: Dose-dependent effect

More lines, now with the values behind:

Row | Structure (SMILES) | inhibition [1] | IC50 [2] [µM] | other results
7 | O=C(/C=C/c1ccc(O)c(O)c1)O[C@H]1[C@H](O)C[C@](OC(=O)/C=C/c2ccc(O)c(O)c2)(C(=O)O)C[C@H]1OC(=O)/C=C/c1ccc(O)c(O)c1 | Active | 2.2 | 
8 | COC(=O)[C@]1(O)C[C@@H](OC(=O)/C=C/c2ccc(O)c(O)c2)[C@@H](OC(=O)/C=C/c2ccc(O)c(O)c2)[C@H](OC(=O)/C=C/c2ccc(O)c(O)c2)C1 | Active | 3 | 
9 | O=C(/C=C/c1ccc(O)c(O)c1)O[C@H]1[C@H](O)C[C@](O)(C(=O)O)C[C@H]1OC(=O)/C=C/c1ccc(O)c(O)c1 | Active | 0.1 | Activity [3]: 10 µM; inhibition [4]: Active; inhibition [5]: Active; Activity [6]: 78.9%; inhibition [7]: Dose-dependent effect
10 | O=C(O)[C@]1(O)C[C@@H](O)[C@@H](O)[C@H](O)C1 (relative stereo) [QUINIC ACID] | inactive | > 100 | Activity [3]: 1.2 µM; inhibition [8]: 100%
11 | O=C(/C=C/c1ccc(O)c(O)c1)O[C@@H]1C[C@](O)(C(=O)O)C[C@@H](OC(=O)/C=C/c2ccc(O)c(O)c2)[C@H]1OC(=O)/C=C/c1ccc(O)c(O)c1 | Active | 0.3 | Activity [3]: 27 µM; inhibition [4]: Active; inhibition [5]: Active; inhibition [9]: 87.6%; inhibition [8]: 63.1%; inhibition [10]: Active; Activity [6]: 96.1%; inhibition [7]: Dose-dependent effect

Reference: ChEMBL document CHEMBL2146368, “Protective effects of caffeoylquinic acids on the aggregation and neurotoxicity of the 42-residue amyloid β-protein” (Bioorg Med Chem, 2012)
